From patent US20250108036A1, “COMPOSITIONS FOR REMOVING SENESCENT CELLS AND USES THEREOF” (LIFECEUTIX CO., LTD., priority 2021, published 2025)
Like-named read-outs stand apart in the source and are kept apart here.

Legend:
Format in all cases: cell-based, human
HMGN1 [1] = assay: HMGN1 ELISA in culture medium of foreskin cells (Examples 10, 11; Tables 62, 63, 64); settings: Homo sapiens; for activity at 30 µM: read-out: HMGN1; for activity at 90 µM: 90 μM test compound
A549 = assay: CellTiter-Glo cell viability of senescent A549 cancer cells (Example 12, Table 67); settings: Homo sapiens; for viability at 10 µM: 10 μM test compound; for viability at 30 µM: 30 μM test compound; for viability at 90 µM: 90 μM test compound; for viability at 270 µM: 270 μM test compound
[2] = system: foreskin cells in which senescence was induced by doxorubicin; assay: CellTiter-Glo cell viability of doxorubicin-induced senescent foreskin cells (Examples 1-2, 10, 11, 13; Tables 4, 63, 65); settings: Homo sapiens, 72 h, read-out: Survival (%); for viability at 10 µM: 10 μM test compound; for viability at […]: […] test compound; for viability at 30 µM: 30 μM test compound; for viability at 90 µM: 90 μM test compound
Method: After 3 days, cell viability was measured using CellTiter-Glo Luminescent Cell Viability Assay (Promega) or light microscopy.

HMGN1 [3] = assay: HMGN1 ELISA in culture medium of A549 cancer cells (Example 12, Table 66); settings: Homo sapiens; for activity at 90 µM: test compound 90 μM
[4] = 30 μM test compound, doxorubicin-treated foreskin cells, DMSO = 100
[5] = A549, doxorubicin-induced senescent A549 cancer cells, 1.1 μM test compound, CellTiter-Glo, read-out: Survival (%)
[6] = A549, doxorubicin-induced senescent A549 cancer cells, CellTiter-Glo, read-out: Survival (%)
[7] = 1.1 μM test compound, doxorubicin-induced senescent foreskin cells, CellTiter-Glo, 0 μM = 100
[8] = doxorubicin-induced senescent foreskin cells, CellTiter-Glo, 0 μM = 100
[9] = A549, doxorubicin-induced senescent A549 cells, test compound 30 μM, ELISA, DMSO = 100, read-out: HMGN1 (amount of HMGN1 secreted in the cell culture)
[10] = doxorubicin-treated foreskin cells, DMSO = 100
[11] = A549, doxorubicin-induced senescent A549 cells, ELISA, DMSO = 100, read-out: HMGN1 (amount of HMGN1 secreted in the cell culture)

SMILES | activity at 30 µM (HMGN1 [1]; [4]) [%] | viability at 1.1 µM (A549; [5]) [%] | viability at 10 µM (A549; [6]) [%] | viability at 30 µM (A549; [6]) [%] | viability at 1.1 µM [2, 7] [%] | viability at 10 µM [2, 8] [%] | viability at […] [2, 8] [%] | activity at 30 µM (HMGN1 [3]; [9]) [%] | viability at 30 µM [2, 8] [%] | other results
CO[C@@H]1[C@H](N(C)C(=O)c2ccccc2)C[C@H]2O[C@]1(C)n1c3ccccc3c3c4c(c5c6ccccc6n2c5c31)C(=O)NC4 [LX-3307, Midostaurin, reference compound] | 288 | 99.8 | 51.9 | 20 | 108 | 32.7 | 96.1 | 295 | – | –
CC1(CCO)CC2(CCC(C(C)(C)C)CC2)OO1 (stereo not shown) [LX-603] | 263 | 94.1 | 53.6 | 17.5 | 91.7 | 51.6 | 74.1 | 332 | 16.8 | –
CO[C@]1(C(=O)N[C@@H](C)c2ccc(-n3cc(F)cn3)nc2)CC[C@H](c2nc(C)cc(Nc3cc(C)[nH]n3)n2)CC1 [LX-1902, Pralsetinib, reference compound] | 303 | 66.2 | 4.2 | – | 59 | 11.9 | 39.6 | 271 | 3.9 | –
CC1(C)CC[C@]2(C(=O)NO)CC[C@]3(C)[C@H](C(=O)C=C4[C@@]5(C)C=C(C#N)C(=O)C(C)(C)[C@@H]5CC[C@]43C)[C@@H]2C1 [LX-2309] | 307 | 112 | 14.9 | – | 69.7 | – | 2.7 | 322 | – | –
NCC(=O)CCC(=O)O [LX-1103, 5-Aminolevulinic acid, reference compound] | – | 96.6 | 95.1 | 91 | 104 | 99.6 | 98.9 | – | 95.2 | activity at 270 µM (HMGN1 [1]; 270 μM test compound, doxorubicin-treated foreskin cells, DMSO = 100): 172%; viability at 90 µM (A549; [6]): 91.1%; viability at 270 µM (A549; [6]): 63.7%; viability at 90 µM [2, 8]: 88%; viability at 270 µM ([2]; 270 μM test compound, doxorubicin-induced senescent foreskin cells, CellTiter-Glo, 0 μM = 100): 61.3%; activity at 270 µM (HMGN1 [3]; A549, doxorubicin-induced senescent A549 cells, test compound 270 μM, ELISA, DMSO = 100, read-out: HMGN1 (amount of HMGN1 secreted in the cell culture)): 158%
COC(=O)[C@]12CCC(C)(C)C[C@H]1[C@H]1C(=O)C[C@@H]3[C@@]4(C)C=C(C#N)C(=O)C(C)(C)[C@@H]4CC[C@@]3(C)[C@]1(C)CC2 [LX-2301] | 283 | 21.5 | – | – | 2.6 | – | – | 274 | – | –
CCc1nc(C(N)=O)c(Nc2ccc(N3CCC(N4CCN(C)CC4)CC3)c(OC)c2)nc1NC1CCOCC1 [LX-3303, Gilteritinib, reference compound] | 275 | 101 | 53.8 | 11.7 | 83.9 | 13.9 | 69.4 | 239 | – | –
O=C(C(C[N+](=O)[O-])=NO)N1CCN(C(c2ccc(Cl)cc2)c2ccc(Cl)cc2)CC1 [LX-403] | 275 | 40.2 | 3.5 | – | 36.9 | 6.5 | 15.5 | 320 | – | –
COC(=O)C[C@]12CCC(C)(C)C[C@H]1[C@H]1C(=O)C=C3[C@@]4(C)C=C(C#N)C(=O)C(C)(C)[C@@H]4CC[C@@]3(C)[C@]1(C)CC2 [LX-2307] | 271 | 4.8 | – | – | 15.4 | – | – | 279 | – | –
Cc1ccc(C(=O)C(C)CN2CCCCC2)cc1 (stereo not shown) [LX-1403, Tolperisone, reference compound] | 282 | 97.6 | 70 | 8.4 | 102 | 55.4 | 97.6 | 306 | 18.3 | –
CCCCC/C=C\C/C=C\C/C=C\C/C=C\CCCC(=O)O [LX-2701, Arachidonic acid] | – | 102 | 97.1 | 93.8 | 103 | 76.8 | 97.3 | – | 48.3 | activity at 90 µM (HMGN1 [1]; [10]): 194%; viability at 90 µM (A549; [6]): 42.9%; viability at 90 µM [2, 8]: 29.4%; activity at 90 µM (HMGN1 [3]; [11]): 179%
C[C@@H]1CC[C@H]2[C@@H](C)C(=O)O[C@@H]3O[C@@]4(C)CC[C@@H]1[C@]32OO4 [LX-506, Artemisinin, reference compound] | – | 109 | 93.8 | 91.4 | 101 | 91 | 97.2 | – | 78 | activity at 90 µM (HMGN1 [1]; [10]): 169%; viability at 90 µM (A549; [6]): 44.2%; viability at 90 µM [2, 8]: 33.2%; activity at 90 µM (HMGN1 [3]; [11]): 169%
CC1(C)CC[C@]2(C(=O)NCC(F)(F)F)CC[C@]3(C)[C@H](C(=O)C[C@@H]4[C@@]5(C)C=C(C#N)C(=O)C(C)(C)[C@@H]5CC[C@]43C)[C@@H]2C1 [LX-2302, Dihydro-CDDO-Trifluoroethyl Amide] | 279 | 95.9 | 5.4 | – | 48.9 | – | 6.3 | 313 | – | –
CCCC[C@H]1Cc2c([nH]c3ccccc23)[C@H](c2ccc(NC3CCC3)cc2)N1C(=O)C#C[Si](C)(C)C [LX-422] | – | – | – | – | – | – | – | – | – | activity at 30 µM (HMGN1 [1]): 294%; viability at 1.1 µM (A549; A549, read-out: Survival (%)): 4.8%; viability at 1.1 µM [2]: 1.8%; activity at 30 µM (HMGN1 [3]; A549, read-out: HMGN1 (amount of HMGN1 secreted in the cell culture)): 336%
O=C(O)c1cc(/N=N/c2ccc(S(=O)(=O)Nc3ccccn3)cc2)ccc1O [LX-1302, Sulfasalazine, reference compound] | – | 95.5 | 102 | 102 | 102 | 92.2 | 105 | – | 79.6 | activity at 90 µM (HMGN1 [1]; [10]): 171%; viability at 90 µM (A549; [6]): 69.6%; viability at 270 µM (A549; [6]): 19.8%; viability at 90 µM [2, 8]: 52.4%; activity at 90 µM (HMGN1 [3]; [11]): 147%
CCCCS[C@@H]1O[C@@H]2O[C@@]3(C)CCC4[C@H](C)CCC([C@H]1C)[C@]42OO3 (stereo partly shown) [LX-503] | 284 | 34.4 | – | – | 25.1 | – | – | 333 | – | –
